Counter-ions that a name gives are not always drawn.
tested on: mouse cortical neuron cultures; conditions: not given

Row | Compound | % Dead cells (vehicle subtracted) [%]
1 | CC(C)=CC1C(C(=O)OCN2C(=O)C3=C(CCCC3)C2=O)C1(C)C (stereo not shown) [Tetramethrin] | -2.018
2 | COc1nc(C)nc(NC(=O)NS(=O)(=O)c2ccccc2C(=O)O)n1 [Metsulfuron (Ally)] | 1.078
3 | CC(C)Oc1cccc(NC(=O)c2ccccc2C(F)(F)F)c1 [Flutolanil] | 9.589
4 | CCCCOC(=O)c1ccccc1C(=O)O | 5.2539
5 | C/C(=N\C#N)N(C)Cc1ccc(Cl)nc1 [Acetamiprid] | 2.983
6 | CCCN(CCC)C(=O)SCC [EPTC] | 3.437
7 | CCCOc1nn(C(=O)[N-]S(=O)(=O)c2ccccc2C(=O)OC)c(=O)n1C.[Na+] [Propoxycarbazone-sodium] | -1.764
8 | CC(C)N(C(=O)SCC(Cl)=C(Cl)Cl)C(C)C [Tri-allate] | 1.844
9 | COc1cc(OC)nc(NC(=O)[N-]S(=O)(=O)c2ncccc2OCC(F)(F)F)n1.[Na+] [Trifloxysulfuron-sodium] | 0.5929
10 | COC(=O)c1ccc(CNS(C)(=O)=O)cc1S(=O)(=O)NC(=O)Nc1nc(OC)cc(OC)n1 [Mesosulfuron methyl] | -0.4756
11 | CCOP(=O)(OCC)Oc1cc(C)nc(C(C)C)n1 [Diazoxon] | -0.938
12 | CN(C)NC(=O)CCC(=O)O [Daminozide] | -0.7321
13 | N#C/N=C1\SCCN1Cc1ccc(Cl)nc1 [Thiacloprid] | 2.238
14 | Clc1nc(Cl)nc(Nc2ccccc2Cl)n1 | -1.572
15 | CCc1cccc(CC)c1N(COC)C(=O)CCl [Alachlor] | 3.545
16 | COc1nn(CSP(=S)(OC)OC)c(=O)s1 [Methidathion] | 0.1761
17 | N#CSCSc1nc2ccccc2s1 | -1.603
18 | CCOc1nc(F)cc2nc(S(=O)(=O)Nc3c(Cl)cccc3Cl)nn12 [Diclosulam] | 0.003204
19 | CCOc1cc(Oc2ccc(C(F)(F)F)cc2Cl)ccc1[N+](=O)[O-] [Oxyfluorfen] | -3.765
20 | C[C@@H]1[C@@H](c2ccc(Cl)cc2)SC(=O)N1C(=O)NC1CCCCC1 [Hexythiazox] | 0.5871
21 | CCOP(=S)(OCC)OC(Cl)C(Cl)(Cl)Cl (stereo not shown) [Chlorethoxyfos] | 0.5415
22 | CCNc1nc(Cl)nc(NC(C)(C)C#N)n1 [Cyanazine] | 0.5036

Row | Compound | % Dead cells (vehicle subtracted) [%]
23 | CCOP(=S)(OCC)Oc1nc(Cl)n(C(C)C)n1 [Isazofos] | -3.842
24 | COP(=O)(OC)SCn1c(=O)oc2cc(Cl)cnc21 [Azamethiphos] | -0.5762
25 | Cc1cnc(C2=NC(C)(C(C)C)C(=O)N2)c(C(=O)O)c1 (stereo not shown) | -0.5785
26 | O=C(O)c1c(Cl)ccc2cc(Cl)cnc12 [Quinclorac] | -1.41
27 | C#CC(C)(C)NC(=O)c1cc(Cl)cc(Cl)c1 [Propyzamide] | 1.57
28 | COCCO [Methyl cellosolve] | 2.2057
29 | CC1(C)C(C=C(Cl)Cl)C1C(=O)OCc1cccc(Oc2ccccc2)c1 (stereo not shown) [Permethrin] | -0.7739
30 | CN/C(=N\[N+](=O)[O-])NCc1cnc(Cl)s1 [Clothianidin] | -2.188
31 | CC1=NNC(=O)N(/N=C/c2cccnc2)C1 | -2.3223
32 | CC(Oc1cccc(Cl)c1)C(=O)O (stereo not shown) [Cloprop] | -3.007
33 | CSc1nnc(C(C)(C)C)c(=O)n1N [Metribuzin] | -0.1172
34 | Metiram-zinc | -0.5751
35 | Nc1c(Cl)cc([N+](=O)[O-])cc1Cl [Dicloran] | -0.1169
36 | CCCCSP(=O)(SCCCC)SCCCC [Tribufos] | -0.3794
37 | COP(=O)(OC)O/C(C)=C/C(=O)N(C)C [Dicrotophos] | -0.1238
38 | Cc1cc(Cl)ccc1OCC(=O)O [MCPA (Agroxone)] | 9.261
39 | CC1(C)C(C=C(Cl)Cl)C1C(=O)OC(C#N)c1ccc(F)c(Oc2ccccc2)c1 (stereo not shown) [Cyfluthrin (Baythroid)] | -3.677
40 | CNC(=S)[S-].O.O.[Na+] [Metam-sodium hydrate] | -1.491
41 | COP(=O)(NC(C)=O)SC (stereo not shown) [Acephate] | -1.8111
42 | Cc1c(COC(=O)[C@@H]2[C@H](/C=C(\Cl)C(F)(F)F)C2(C)C)cccc1-c1ccccc1 (racemic) [Bifenthrin] | 0.2358
43 | COP(=S)(OC)Oc1ccc([N+](=O)[O-])cc1 [Parathion-methyl] | 1.486
44 | CON(C)C(=O)Nc1ccc(Cl)c(Cl)c1 [Linuron] | -0.9348

Row | Compound | % Dead cells (vehicle subtracted) [%]
45 | O=C(O)CCCOc1ccc(Cl)cc1Cl | -0.3394
46 | CNC(=O)Oc1ccccc1OC(C)C [Propoxur] | 0.5409
47 | CCc1cccc(C)c1N(C(=O)CCl)C(C)COC (stereo not shown) [Metolachlor] | -3.586
48 | Chlorpyrifos oxon | 0.8087
49 | CS(=O)(=O)c1ccc(C(=O)C2C(=O)CCCC2=O)c([N+](=O)[O-])c1 [Mesotrione] | 0.1871
50 | COc1nc(NC(C)C)nc(NC(C)C)n1 | -1.14
51 | CCOc1cc(C(C)(C)C)ccc1C1COC(c2c(F)cccc2F)=N1 (stereo not shown) [Etoxazole] | -1.186
52 | CCCN(CCC)c1c([N+](=O)[O-])cc(C(F)(F)F)cc1[N+](=O)[O-] [Trifluralin] | 0.2689
53 | S=C([S-])NCCNC(=S)[S-].[Mn+2] [Maneb] | 6.097
54 | CCCCC(CC)COC(=O)c1ccccc1C(=O)OCC(CC)CCCC (stereo not shown) [Diethylhexyl phthalate (DEHP)] | -0.2848
55 | CCNc1nc(N)nc(Cl)n1 | 1.813
56 | CCN(CC)c1nc(C)cc(OP(=S)(OC)OC)n1 [Pirimiphos-methyl] | -0.1826
57 | CCOC(=O)CC(SP(=S)(OC)OC)C(=O)OCC (stereo not shown) [Malathion] | -1.492
58 | COP(=S)(OC)Oc1ccc(SC)c(C)c1 [Fenthion] | -0.5799
59 | O=c1ccc(=O)[nH][nH]1 [Maleic hydrazide] | 7.215
60 | O=C(O)c1nc(Cl)ccc1Cl | -1.907
61 | CNC(=O)O/N=C(\SC)C(=O)N(C)C [Oxamyl] | -2.835
62 | CC1=C(C(=O)Nc2ccccc2)SCCO1 | 3.189
63 | CSC(=O)c1cccc2nnsc12 | -0.1497
64 | Nc1c(Cl)c(Cl)nc(C(=O)O)c1Cl [Picloram] | 3.752
65 | CNC(=O)Oc1cccc(N=CN(C)C)c1 [Formetanate hydrochloride] | 1.887

same assay, conditions: mouse, 24 h, 0.01 µM

Row | Compound | % Dead cells (vehicle subtracted) [%]
66 | CCCCOC(=O)C(C)Oc1ccc(Oc2ccc(C(F)(F)F)cn2)cc1 (stereo not shown) [Fluazifop-butyl] | 0.215

same assay, conditions: mouse, 24 h, 0.1 µM

Row | Compound | % Dead cells (vehicle subtracted) [%]
67 | CN(C)[C@@H]1C(O)=C(C(N)=O)C(=O)[C@@]2(O)C(O)=C3C(=O)c4c(O)cccc4[C@@](C)(O)[C@H]3[C@H](O)[C@@H]12 [Oxytetracycline dihydrate] | -3.324
68 | CCCCOC(=O)C(C)Oc1ccc(Oc2ccc(C(F)(F)F)cn2)cc1 (stereo not shown) [Fluazifop-butyl] | -0.165

same assay, conditions: mouse, 24 h, 1 µM

Row | Compound | % Dead cells (vehicle subtracted) [%]
69 | CN(C)[C@@H]1C(O)=C(C(N)=O)C(=O)[C@@]2(O)C(O)=C3C(=O)c4c(O)cccc4[C@@](C)(O)[C@H]3[C@H](O)[C@@H]12 [Oxytetracycline dihydrate] | -0.5636
70 | CCCCOC(=O)C(C)Oc1ccc(Oc2ccc(C(F)(F)F)cn2)cc1 (stereo not shown) [Fluazifop-butyl] | 23.9839

same assay, conditions: mouse, 24 h, 10 µM

Row | Compound | % Dead cells (vehicle subtracted) [%]
71 | CC(C)N1C(=O)N(c2ccccc2)CS/C1=N\C(C)(C)C [Buprofezin] | -1.5902
72 | COc1cc(OC)nc(Sc2cccc(Cl)c2C(=O)O)n1 [Pyrithiobac-sodium] | 0.5188
73 | CCCCCOC(=O)COc1cc(N2C(=O)C3=C(CCCC3)C2=O)c(F)cc1Cl [Flumiclorac-pentyl] | -0.6581
74 | Cc1cc(C2CC2)nc(Nc2ccccc2)n1 [Cyprodinil] | -6.385
75 | CCOC(=O)NC(=S)Nc1ccccc1NC(=S)NC(=O)OCC [Thiophanate] | -1.666
76 | CCCCOC(=O)c1ccccc1C(=O)OCCCC [Dibutyl phthalate] | -2.722
77 | CSc1nc(NC(C)C)nc(NC(C)C)n1 [Prometryn] | -5.322
78 | Cc1ccn2nc(S(=O)(=O)Nc3c(F)cccc3F)nc2n1 [Flumetsulam] | 0.4495
79 | N#Cc1c(Cl)cccc1Cl [Dichlobenil] | 8.856
80 | CS(=O)(=O)c1cc(C(F)(F)F)ccc1C(=O)c1cnoc1C1CC1 [Isoxaflutole] | 2.416
81 | COC(=O)CSc1cc(/N=c2\sc(=O)n3n2CCCC3)c(F)cc1Cl [Fluthiacet-methyl] | -0.383
82 | CN(C)C(=O)Nc1cccc(C(F)(F)F)c1 [Fluometuron] | 0.2278
83 | CN(C)[C@@H]1C(O)=C(C(N)=O)C(=O)[C@@]2(O)C(O)=C3C(=O)c4c(O)cccc4[C@@](C)(O)[C@H]3[C@H](O)[C@@H]12 [Oxytetracycline dihydrate] | 21.6384
84 | FC(F)C(F)(F)OCC(Cn1cncn1)c1ccc(Cl)cc1Cl (stereo not shown) [Tetraconazole] | 2.833
85 | COc1ccc(-c2ccccc2)cc1NNC(=O)OC(C)C [Bifenazate] | 0.1333
86 | COc1ccc(C(=CC(=O)N2CCOCC2)c2ccc(Cl)cc2)cc1OC [Dimethomorph] | -1.666
87 | CC(COc1ccc(Oc2ccccc2)cc1)Oc1ccccn1 (stereo not shown) [Pyriproxyfen] | 1.128
88 | CCCCOC(=O)C(C)Oc1ccc(Oc2ccc(C(F)(F)F)cn2)cc1 (stereo not shown) [Fluazifop-butyl] | 7.788
89 | O=P(O)(O)CCCl [Ethephon] | -0.1299
90 | Clc1cccc(C(Cl)(Cl)Cl)n1 [Nitrapyrin] | 0.473
91 | Cc1ccc(-c2c(Cl)nc(C#N)n2S(=O)(=O)N(C)C)cc1 [Cyazofamid] | -1.678
92 | O=C(Nc1ccccc1-c1ccc(Cl)cc1)c1cccnc1Cl [Boscalid] | -4.045
93 | Cc1[nH]c(=O)n(C(C)(C)C)c(=O)c1Cl [Terbacil] | 6.548
94 | CC1(C)CCC(=Cc2ccc(Cl)cc2)C1(O)Cn1cncn1 (stereo not shown) [Triticonazole] | 0.8709

— article PMC4821887, “Identification of chemicals that mimic transcriptional changes associated with autism, brain aging and neurodegeneration” (Nature Communications, 2016)
